Consider 5 molecules from patent publication US20220265817A1, “THERAPEUTIC COMPOSITIONS AND METHODS FOR TREATING HEPATITIS B” (priority 2017, published 2022).

One series has as its system HBV genome. Put plainly: siRNA IC50 (Table A). Set-up: species or system Hepatitis B virus.
Series [1] concerns HBV rcDNA in HepDE19 cells. As to the kind of experiment: HepDE19 cell culture system, rcDNA quantitation using bDNA assay, MacSynergy II. The settings on record: for AVERAGE % INHIBITION: COMPOUND 3 0.000 μM. It counts as cell-based, human hepatoma cell line. How it is done: In vitro combination studies were conducted using the method of Prichard and Shipman (Prichard M N, and Shipman C Jr., Antiviral Research, 1990, 14 (4-5), 181-205; and Prichard M N, et. al., MacSynergy II). HepDE19 cell culture system is a HepG2 (human hepatocarcinoma) derived cell line that supports HBV DNA replication and cccDNA formation in a tetracycline (Tet)-regulated manner and produces HBV rcDNA and a detectable reporter molecule dependent on the production and maintenance of cccDNA (Guo et al 2007. J. Virol 81:12472-12484). HepDE19 (50,000 cells/well) were plated in 96 well collagen-coated tissue-culture treated microtiter plates in DMEM/F12 medium supplemented with 10% fetal bovine serum, 1% penicillin-streptomycin and 1 μg/ml tetracycline and incubated in a humidified incubator at 37° C. and 5% CO2 overnight. Next day, the cells were switched to fresh medium without tetracycline and incubated for 4 hrs at 37° C. and 5% CO2. […] The two inhibitors were tested both singly as well as in combinations in a checkerboard fashion such that each concentration of inhibitor A was combined with each concentration of inhibitor B to determine their combination effects on inhibition of rcDNA production. Following a 7 day-incubation of cells with compound combinations, the level of rcDNA present in the inhibitor-treated wells was measured using a Quantigene 2.0 bDNA assay kit (Affymetrix, Santa Clara, Calif.) with HBV specific custom probe set and manufacturers instructions. […] The RLU data from the single compound treated cells were analyzed using XL-Fit module in Microsoft Excel to determine EC50 values using a 4-parameter curve fitting algorithm. Concurrently, the effect of compounds on cell viability was assessed using replicate plates, plated at a density of 5,000 cells/well and incubated for 4 days, to determine the ATP content as a measure of cell viability using the cell-titer glo reagent (CTG; Promega Corporation, Madison, Wis.) as per manufacturer's instructions.
In vitro combination studies were conducted using the method of Prichard and Shipman (Prichard M N, Shipman C, Jr., Antiviral Res, 14, 181-205 (1990)). The HepDE19 cell line was developed as described in Guo et al. (Guo et al., J Virol, 81, 12472-12484 (2007)). It is a human hepatoma cell line stably transfected with the HBV genome, and which can express HBV pregenomic RNA and support HBV rcDNA (relaxed circular DNA) synthesis in a tetracycline-regulated manner. HepDE19 cells were plated in 96 well tissue-culture treated microtiter plates in DMEM/F12 medium supplemented with 10% fetal bovine serum+1% penicillin-streptomycin without tetracycline and incubated in a humidified incubator at 37° C. and 5% CO2 overnight. […] The two inhibitors were tested both singly as well as in combinations in a checkerboard fashion such that each concentration of inhibitor A was combined with each concentration of inhibitor B to determine their combination effects on inhibition of rcDNA production. Following a 48 hour-incubation, the level of rcDNA present in the inhibitor-treated wells was measured using a bDNA assay (Affymetrix) with HBV specific custom probe set and manufacturers instructions. […] Concurrently, the effect of inhibitor combinations on cell viability was assessed using replicate plates that were used to determine the ATP content as a measure of cell viability using the Cell-TiterGlo reagent (Promega) as per manufacturer's instructions.
In vitro combination studies were conducted using the method of Prichard and Shipman (1990) (Prichard M N, Shipman C, Jr. 1990. A three-dimensional model to analyze drug-drug interactions. Antiviral Res 14:181-205 AND Prichard M N. 1992. MacSynergy II, University of Michigan).

Series [2] concerns D type HBV in primary human hepatocytes. As to the kind of experiment: microbe, parasite or virus in culture. It is filed as cell-based. The settings on record: for AVERAGE % INHIBITION: COMPOUND 22 0 nM. How it is done: (§1) The mouse liver perfusion was applied to isolate PHHs. The isolated hepatocytes were further purified by Percoll. The cells were resuspended with culture media and seeded into the 96-well plates (6×10^4 cell/well) or 48-well plates (1.2×10^5 cell/well). The PHHs were infected with a D type HBV one day post seeding (day 1).
(§2) On day 2, the test compounds were diluted and added into the cell culture plates. The culture media containing the compounds were refreshed every other day. The cell culture supernatants were collected on day 8 for the HBV DNA and antigen determinations.
(§3) The compounds were tested at 7 concentrations, 3-fold dilution, in triplicate.
(§4) Two compounds were tested at 5×5 matrix, in triplicate plates.
DNA in the culture supernatants harvested on days 8 were isolated with QIAamp 96 DNA Blood Kit (Qiagen-51161). For each sample, 100 μl of the culture supernatants was used to extract DNA. The DNA was eluted with 100 μl, 150 μl or 180 μl of AE. HBV DNA in the culture supernatants was quantified by qPCR. The combination effect was analyzed by the MacSynergy software. The primers are described below.

Series [3] deals with D type HBV in primary human hepatocytes (HBsAg). As to the kind of experiment: microbe, parasite or virus in culture. It counts as cell-based. The following applies: for AVERAGE % INHIBITION: COMPOUND 22 0 nM. As for the experimental part:
as §1, §2, §3, §4
(§5) HBsAg/HBeAg in the culture supernatants harvested on days 8 were measured by the HBsAg/HBeAg ELISA kit (Autobio) according to the manual. The samples were diluted with PBS to get the signal in the range of the standard curve. The inhibition rates were calculated with the formula below. The combination effect was analyzed by the MacSynergy software.
% Inh. HBsAg=[1-HBsAg quantity of sample/HBV quantity of DMSO control]×100.

The subject of series [4] is D type HBV in primary human hepatocytes (HBeAg). As to the kind of experiment: microbe, parasite or virus in culture. It counts as cell-based. As for the experimental part: as §1, §2, §3, §4, §5
% Inh. HBeAg=[1-HBeAg quantity of sample/HBV quantity of DMSO control]×100.

Where [5] appears, read: Hepatitis B virus, HepDE19, read-out: AVERAGE % INHIBITION
Where [6] appears, read: Hepatitis B virus, Hepatocyte, read-out: AVERAGE % […] DNA.
[7] abbreviates: Hepatitis B virus, Hepatocyte, read-out: Inhibitor A EC50.
Setting [8] is: Hepatitis B virus, Hepatocyte, read-out: Inhibitor EC50.
Setting [9] is: Hepatitis B virus, Hepatocyte, read-out: AVERAGE % INHIBITION HBsAg.

Read-outs that look alike come from different tables or passages of the source. [UNA] = unlocked nucleic acid; m = 2'-O-methyl; r = 2'-OH (RNA)

“1m: siRNA duplex SEQ ID NO: 1 and 2 targeting the HBV genome (chain 1 AGGUAUGUUGCCCGUUUGUUU; chain 2 ACAAACGGGCAACAUACCUUU; chain 1: sugars from the 5' end [UNA]mrmrrmmrrrrrmrmrrr[UNA][UNA], backbone not given here; chain 2: sugars from the 5' end rrrrrrmrrrrrrrmrrrr[UNA][UNA], backbone not given here) [Compound 1m]” came in with an IC50 in the series on HBV genome of 1.43 nM.

As to “2m: siRNA duplex SEQ ID NO: 3 and 4 targeting the HBV genome (chain 1 GCUCAGUUUACUAGUGCCAUU; chain 2 UGGCACUAGUAAACUGAGCUU; chain 1: sugars from the 5' end [UNA]rmmrmrrrrrrrrrrrmrr[UNA], backbone not given here; chain 2: sugars from the 5' end r9 m1 r7 m1 r3, backbone not given here) [Compound 2m]”, the IC50 in the series on HBV genome is 0.37 nM.

“3m: siRNA duplex SEQ ID NO: 5 and 6 targeting the HBV genome (chain 1 CCGUGUGCACUUCGCUUCAUU; chain 2 UGAAGCGAAGUGCACACGGUU; chain 1: sugars from the 5' end [UNA]rrrmmrrrrrmrrrmmrr[UNA][UNA], backbone not given here; chain 2: sugars from the 5' end rrrrrrrrrrrmrrrrrmr[UNA][UNA], backbone not given here) [Compound 3m]”: 0.06 nM corresponded to half-maximal inhibition in the series with HBV genome (IC50).

In the case of `CCOC(=O)C1=C(CN2CCOCC2)NC(c2nccs2)=NC1c1ccc(F)cc1Br` (centres unmarked) [GLS4], the “AVERAGE % INHIBITION” value in series [1] (GLS-4 0.008 μM) is −1.17%; in series [1] (GLS-4 0.016 μM) it was −5.82%; in series [1] (GLS-4 0.031 μM) it was 7.03%; in series [1] (GLS-4 0.063 μM), 38.95%; in series [1] (GLS-4 0.125 μM) it was 77.82%; in series [1] (GLS-4 0.250 μM) it was 94.65%. Also, the “AVERAGE % INHIBITION” value in series [1] (GLS-4 0.500 μM) came to 97.48%; in series [1] (GLS-4 1.000 μM), 98.51%; in series [1] (GLS-4 2.000 μM), 98.22%. Moreover, the half-maximal effective concentration (EC50) in series [1] (rcDNA, bDNA assay, DE19 cells, read-out: Inhibitor B EC50) came out at 77 nM.

With `CC(C)OC(=O)[C@H](C)N[P@](=O)(CO[C@H](C)Cn1cnc2c(N)ncnc21)Oc1ccccc1` [TAF, tenofovir alafenamide, reference compound], in series [1] (setting [5]), the inhibition at 0.000781 µM is -4.76%. Moreover, in series [1] (setting [5]), the inhibition at 0.001563 µM was 3.49%. Moreover, the inhibition at 0.003125 µM in series [1] (setting [5]) stood at 0.6%. The inhibition at 0.00625 µM in series [1] (setting [5]) amounted to 10.6%. The inhibition at 0.0125 µM in series [1] (setting [5]) amounted to 28.6%. For the same molecule, the inhibition at 0.025 µM in series [1] (setting [5]) was 20%. The inhibition at 0.05 µM in series [1] (setting [5]) amounted to 53.2%. The inhibition at 0.1 µM in series [1] (setting [5]) was determined as 77.6%. Besides, in series [1] (setting [5]), the inhibition at 0.2 µM amounted to 89.9%. Besides, the concentration giving a half-maximal response (EC50) in series [1] (Hepatitis B virus, HepDE19, read-out: Inhibitor B EC50) is 44.5 nM; in series [2] (setting [7]), 0.405 nM; in series [2] (setting [8]), 0.405 nM; in series [3] (setting [7]), more than 100 nM; in series [3] (setting [8]) it was more than 100 nM; in series [4] (setting [8]), more than 100 nM. Moreover, the inhibition at 50 pM in series [2] (setting [6]) is -8.77%; in series [3] (setting [9]), -7.35%. Also, the inhibition at 0.00012 µM in series [2] (setting [6]) stood at 6.36%; in series [3] (setting [9]) it was 23%. Further, the inhibition at 0.00037 µM in series [2] (setting [6]) is 11.6%; in series [3] (setting [9]) it was 7.04%. In addition, the inhibition at 0.00041 µM in series [2] (setting [6]) stood at 28.8%; in series [3] (setting [9]), 11.3%. The inhibition at 0.00123 µM in series [2] (setting [6]) was found to be 63.4%; in series [3] (setting [9]), 11%. The inhibition at 0.00333 µM in series [2] (setting [6]) came to 42.6%; in series [3] (setting [9]), 16.1%. Also, the results for the inhibition at 0.0037 µM in series [2] (setting [6]) and in series [3] (setting [9]) were 78.3% and -6.72%, respectively. Besides, the figures for the inhibition at 0.01 µM in series [2] (setting [6]) and in series [3] (setting [9]) were 43.3% and 6.38%, respectively. In addition, the “AVERAGE % INHIBITION” value in series [2] (TAF 0.12 nM) is −2.6%; in series [2] (TAF 0.37 nM) it was −1.92%; in series [2] (TAF 3.33 nM), 40.16%; in series [2] (TAF 10.00 nM), 50.21%; in series [2] (TAF […]) it was 4.95%; in series [3] (TAF 0.1234568 nM) it was 29.82%. Further, the “AVERAGE % INHIBITION” value in series [3] (TAF 0.3703704 nM) worked out at 10.78%; in series [3] (TAF 1.1111111 nM) it was 20.81%; in series [3] (TAF 3.3333333 nM) it was 9.06%; in series [3] (TAF 10 nM) it was 7.97%; in series [4] (TAF 0.05 nM, COMPOUND 3 0.00 nM), 1.17%; in series [4] (TAF 0.12 nM, COMPOUND 22 0 nM), 26.61%. In addition, the “AVERAGE % INHIBITION” value in series [4] (TAF 0.14 nM, COMPOUND 3 0.00 nM) is recorded as −2.78%; in series [4] (TAF 0.37 nM, COMPOUND 22 0 nM), 9.9%; in series [4] (TAF 0.41 nM, COMPOUND 3 0.00 nM), 1.76%; in series [4] (TAF 1.23 nM, COMPOUND 3 0.00 nM), 9.91%; in series [4] (TAF 3.33 nM, COMPOUND 22 0 nM), 19.69%; in series [4] (TAF 3.70 nM, COMPOUND 3 0.00 nM), 11.87%. The “AVERAGE % INHIBITION” value in series [4] (TAF 10.00 nM, COMPOUND 22 0 nM) came to 22.85%; in series [4] (TAF […], COMPOUND 22 0 nM) it was 22.56%. In series [3] (setting [9]), the inhibition at 0.00014 µM stood at 12.8%.
